Experimental data: paper PMC4929455 (2016)
Where a SMILES comes first, the peptide text is derived from it.

How the values were obtained:
[1] = system: T:THF (DNA, mismatch bulge abasic, tetrahydrofuran (THF) abasic analogue at 6 of strand 1, opposite T) TCACCNGTCGTA/TACGACTGGTGA; test: UV melting at 260 nm; conditions: 100 mM NaCl; 10 mM sodium phosphate pH 7.0, 1 mM EDTA; 5 μM DNA, 5 μM C1
[2] = system: T:A (DNA, duplex) TCACCAGTCGTA/TACGACTGGTGA; test: UV melting at 260 nm; conditions: 100 mM NaCl; 10 mM sodium phosphate pH 7.0, 1 mM EDTA; 5 μM DNA, 5 μM C1
[3] = system: T:THF (DNA, mismatch bulge abasic, tetrahydrofuran (THF) abasic analogue at 6 of strand 1, opposite T) TCACCNGTCGTA/TACGACTGGTGA; test: CD forward titration, ICD at 500 nm; conditions: 100 mM NaCl, 10 mM sodium phosphate pH 7.0, 1 mM EDTA, 15 °C, apparent
[4] = system: T:A (DNA, duplex) TCACCAGTCGTA/TACGACTGGTGA; test: CD forward titration, ICD at 500 nm; conditions: 100 mM NaCl; 10 mM sodium phosphate pH 7.0, 1 mM EDTA, 15 °C; apparent; non-specific binding
[5] = system: AP site-containing oligodeoxynucleotide (unlabeled) (DNA, single strand, natural AP site (from dU by UDG) at 4) TCANCGT; test: ESI-MS / CID of reduced covalent complex; conditions: 100 mM Hepes-K pH 7.3, 50 mM NaB(CN)H3, 37 °C overnight
[6] = system: dU-containing oligodeoxynucleotide 5'-TCA(dU)CGT-3' (DNA, single strand, 2'-deoxyuridine at 4) TCAUCGT; test: cyanoborohydride trapping, denaturing gel shift; conditions: 100 mM Hepes-K pH 7.3, 50 mM NaB(CN)H3, 18 °C overnight; 10 μM C1; covalent trapping only
[7] = system: AP site-containing oligodeoxynucleotide (32P-labeled) (DNA, single strand, natural AP site (from dU by UDG) at 4) TCANCGT; test: cyanoborohydride trapping, denaturing gel shift; conditions: 100 mM Hepes-K pH 7.3, 50 mM NaB(CN)H3, 18 °C overnight, covalent
[8] = system: T:AP (DNA, mismatch bulge abasic, natural apurinic/apyrimidinic site (from dU by UDG) at 6 of strand 1, opposite T) TCACCNGTCGTA/TACGACTGGTGA; test: CD forward titration, ICD at 500 nm; conditions: 100 mM NaCl; 10 mM sodium phosphate pH 7.0, 1 mM EDTA, 15 °C; apparent; corrected for non-specific interactions (uncorrected 44 ± 5)

| ΔTm [1] [°C] | ΔTm [2] [°C] | KD ([3]; corrected for non-specific interactions (uncorrected 29 ± 1)) [µM] | KD [4] [µM] | binding [5] | binding [6] | binding ([7]; 10 μM C1, ~80% trapped) | KD ([3]; corrected for non-specific interactions (uncorrected 35 ± 1)) [µM] | KD [8] [µM] | binding ([7]; 2 mM KWKK) | Compound |
| --- | --- | --- | --- | --- | --- | --- | --- | --- | --- | --- |
| 6.3 | 1 | 22 ± 1 | 64 ± 3 | yes | no | yes | – | – | – | CNCC#Cc1c(F)ccc2c1/C(=C/c1[nH]ccc1OC)C(=O)N2 |
| – | – | – | 69 ± 14 | – | – | – | 28 ± 1 | 28 ± 2 | – | COc1cc[nH]c1/C=C1\C(=O)Nc2ccc(F)c(C#CC3(O)CCNCC3)c21 |
| – | – | – | – | – | – | – | – | – | yes | NCCCC[C@H](NC(=O)[C@H](CCCCN)NC(=O)[C@H](Cc1c[nH]c2ccccc12)NC(=O)[C@@H](N)CCCCN)C(=O)O (H-KWKK-OH) |
